“Also recorded” adds a separate entry of the source.

Broadly, the MIC is the smallest concentration in the dilution series that meets the test's criterion for growth inhibition.

For one data set, the system named is Bacillus subtilis. The experiment in a line: agar diffusion-zone of inhibition assay. The conditions noted are these: for Zone of Clearing (cm) B. subtilis: Example 1, 0.5 μg spotted. Type of data set: cell-based. A general note: In agar diffusion tests the substance spreads into inoculated agar from a disc or well.
The test system of the next data set is Saccharomyces cerevisiae. In words: agar diffusion-zone of inhibition assay. Type of data set: cell-based. The conditions noted are these: for Zone of Clearing (cm) Yeast: Example 1, 0.5 μg spotted.
Data set [1] relates to AtchitIV5 N-glycosylation. The experiment in a line: Pichia-based protein N-glycosylation assay (SDS-PAGE). Type of data set: cell-based. The conditions noted are these: Example 2, 20 μg/mL, added at methanol induction.
The next data set concerns B. subtilis strain MW10. The experiment in a line: beta-lactam enhancement, broth dilution MIC with resazurin. The conditions noted are these: for MIC of the beta-lactam without any tunicamycins or tunicamycin related compounds added: beta-lactam alone. In general terms: Broth dilution looks for growth in wells or tubes with falling amounts of substance.
Data set [2] deals with cell wall teichoic acid (WTA) pathway. The conditions noted are these: background, literature; cited from earlier work.
The subject of data set [3] is Chinese hamster ovary (CHO) cells. In words: cytotoxicity against mammalian cell line in culture. Type of data set: cell-based. The conditions noted are these: FIG. 8A, 0.5 μg, 1.0 μg, 2.0 μg. From the text:
Chinese hamster ovary (CHO) cells are chosen for this experiment because they have been used previously as a model for tunicamycin toxicity. See, e.g., Scocca and Krag, J. Biol. Chem., 265:20621-20626 (1990). A human cell line (MDA-MB-231 triple negative human breast cancer cells) are also used because their known susceptibility to tunicamycin. See, Banerjee, et al., Cancer Res. 71:2095 (2011). The protocols used are described in Duksin & Bornstein, Proc. Natl. Acad. Sci. (U.S.A.), 74:3433-3437 (1977).

For the compound `CC(=O)NC1C(O)[C@H](O)C(CO)O[C@@H]1OC1O[C@H](C[C@@H](O)C2O[C@@H](n3ccc(=O)[nH]c3=O)[C@H](O)[C@@H]2O)C(O)C(O)[C@H]1N` (some centres unmarked) [Compound 1], in the data set on Bacillus subtilis, the “Zone of Clearing (cm) B. subtilis” value came out at 0 cm. Moreover, the “Zone of Clearing (cm) Yeast” value with Saccharomyces cerevisiae was found to be 0 cm.

As to `CC(=O)NC1C(O)[C@H](O)[C@H](CO)O[C@@H]1O[C@@H]1O[C@H](C[C@@H](O)C2O[C@@H](n3ccc(=O)[nH]c3=O)[C@H](O)[C@@H]2O)C(O)C(O)[C@H]1NC(=O)/C=C/CCCCCCCCCC(C)C` (some centres unmarked) [Compound 2], in the data set with Bacillus subtilis, the “antimicrobial activity on Bacillus (in words)” value is “same antimicrobial activity as the native tunicamycin” and the “Zone of Clearing (cm) B. subtilis” value was 2.5 cm. Also, in the data set with Saccharomyces cerevisiae, the “toxicity / antimicrobial activity on S. cerevisiae (in words)” value (“toxicity / antimicrobial activity” below) is “same antimicrobial activity as the native tunicamycin” and the “Zone of Clearing (cm) Yeast” value was found to be 2.4 cm. For the same compound, the “inhibition of AtchitIV5 N-glycosylation (in words)” value in data set [1] is reported as “same effect as the naturally occurring tunicamycins”.

As for `CC(=O)NC1C(O)[C@H](O)[C@H](CO)O[C@@H]1O[C@@H]1O[C@H](C[C@@H](O)C2O[C@@H](n3ccc(=O)[nH]c3=O)[C@H](O)[C@@H]2O)C(O)C(O)[C@H]1NC(=O)CCCCCCCCCCCC(C)C` (some centres unmarked) [Compound 3], in the data set with Bacillus subtilis, the “antimicrobial activity on Bacillus (in words)” value is reported as “comparable response” and the “Zone of Clearing (cm) B. subtilis” value was 2.3 cm. In addition, in the data set on Saccharomyces cerevisiae, the “toxicity / antimicrobial activity” value is on record as “considerably less toxic; also recorded: reduced toxicity” and the “Zone of Clearing (cm) Yeast” value turned out to be 0.2 cm. Besides, the “inhibition of AtchitIV5 N-glycosylation (in words)” value in data set [1] is “less effective inhibitor”.

As for `CC(C)CCCCCCCCC/C=C/C(=O)N[C@@H]1C(O)C(O)[C@@H](C[C@@H](O)C2O[C@@H](n3ccc(=O)[nH]c3=O)[C@H](O)[C@@H]2O)O[C@H]1O[C@H]1O[C@@H](CO)[C@@H](O)C(O)C1N=[N+]=[N-]` (some centres unmarked) [Compound 4], in the data set on Bacillus subtilis, the “antimicrobial activity on Bacillus (in words)” value is “almost equivalent to the native tunicamycin” and the “Zone of Clearing (cm) B. subtilis” value was found to be 1.6 cm. In addition, in the data set on Saccharomyces cerevisiae, the “toxicity / antimicrobial activity” value was “essentially non-toxic; also recorded: reduced toxicity” and the “Zone of Clearing (cm) Yeast” value was found to be 0 cm.

For `[N-]=[N+]=NC1C(O)[C@H](O)C(CO)O[C@@H]1OC1O[C@H](C[C@@H](O)C2O[C@@H](n3ccc(=O)[nH]c3=O)[C@H](O)[C@@H]2O)C(O)C(O)[C@H]1N1C(=O)c2ccccc2C1=O` (some centres unmarked) [Compound 5], in the data set with Bacillus subtilis, the “Zone of Clearing (cm) B. subtilis” value amounted to 0 cm. Besides, the “Zone of Clearing (cm) Yeast” value in the data set on Saccharomyces cerevisiae worked out at 0 cm.

Regarding `COc1ccc(O[C@@H]2OC([C@H](O)C[C@H]3OC(O[C@H]4OC(CO)[C@@H](O)C(O)C4NC(C)=O)[C@H](N)C(O)C3O)[C@@H](O)[C@H]2O)cc1` (some centres unmarked) [Compound 6], in the data set with Bacillus subtilis, the “antimicrobial activity on Bacillus (in words)” value is reported as “no antimicrobial biological activity” and the “Zone of Clearing (cm) B. subtilis” value stood at 0 cm. Besides, in the data set with Saccharomyces cerevisiae, the “toxicity / antimicrobial activity” value was “no antimicrobial biological activity” and the “Zone of Clearing (cm) Yeast” value stood at 0 cm.

Take `COc1ccc(O[C@@H]2OC([C@H](O)C[C@H]3O[C@@H](O[C@H]4O[C@@H](CO)[C@@H](O)C(O)C4NC(C)=O)[C@H](NC(=O)/C=C/CCCCCCCCCC(C)C)C(O)C3O)[C@@H](O)[C@H]2O)cc1` (some centres unmarked) [Compound 7]: in the data set with Bacillus subtilis, the “antimicrobial activity on Bacillus (in words)” value is “no antimicrobial biological activity” and the “Zone of Clearing (cm) B. subtilis” value worked out at 0 cm. In the data set on Saccharomyces cerevisiae, the “toxicity / antimicrobial activity” value was “no antimicrobial biological activity” and the “Zone of Clearing (cm) Yeast” value is on record as 0 cm.

In the case of `CC(=O)NC1C(O)[C@H](O)C(CO)O[C@@H]1OC1O[C@H](C[C@@H](O)C2O[C@@H](n3ccc(=O)[nH]c3=O)[C@H](O)[C@@H]2O)C(O)C(O)[C@H]1NC(C)=O` (some centres unmarked) [Compound 9], the “Zone of Clearing (cm) B. subtilis” value with Bacillus subtilis is 0 cm. In addition, the “Zone of Clearing (cm) Yeast” value in the data set with Saccharomyces cerevisiae is 0 cm.

In the case of `CC(=O)NC1C(O)[C@H](O)[C@H](CO)O[C@@H]1O[C@@H]1O[C@H](C[C@@H](O)C2O[C@@H](n3cnc4c(N)ncnc43)[C@H](O)[C@@H]2O)C(O)C(O)[C@H]1NC(=O)/C=C/CCCCCCCCCC(C)C` (some centres unmarked) [Compound 10], in the data set with Bacillus subtilis, the “antimicrobial activity on Bacillus (in words)” value is given as “no antimicrobial biological activity” and the “Zone of Clearing (cm) B. subtilis” value is recorded as 0 cm. Further, in the data set with Saccharomyces cerevisiae, the “toxicity / antimicrobial activity” value is recorded as “no antimicrobial biological activity” and the “Zone of Clearing (cm) Yeast” value came to 0 cm.

With `COc1cccc(OC)c1C(=O)N[C@@H]1C(=O)N2[C@@H]1SC(C)(C)[C@@H]2C(=O)O` [methicillin], the “MIC of the beta-lactam without any tunicamycins or tunicamycin related compounds added” value in the data set with B. subtilis strain MW10 was 0.125 µg/mL.

With `Cc1onc(-c2ccccc2)c1C(=O)N[C@@H]1C(=O)N2[C@@H]1SC(C)(C)[C@@H]2C(=O)O` [oxacillin], the minimal inhibitory concentration (MIC) in the data set with B. subtilis strain MW10 (Bacillus subtilis, MW10, read-out: MIC of oxacillin only) amounted to 0.125 µg/mL. The “MIC of the beta-lactam without any tunicamycins or tunicamycin related compounds added” value in the data set with B. subtilis strain MW10 was found to be 0.25 µg/mL.

Regarding `CC1(C)S[C@@H]2[C@H](NC(=O)Cc3ccccc3)C(=O)N2[C@H]1C(=O)O` [penicillin G], in the data set on B. subtilis strain MW10, the “MIC of the beta-lactam without any tunicamycins or tunicamycin related compounds added” value came to 0.025 µg/mL.

For the compound `C[C@H]1[C@@H](c2cc(C(F)(F)F)cc(C(F)(F)F)c2)OC(=O)N1C(=O)CCc1cncc2ccccc12` [tarocin A1], in data set [2], the “depletion of the cell wall teichoic acid polymer (in words)” value is “complete depletion”.

For quinovosamycin, the “toxicity to CHO cells (in words)” value in data set [3] was “toxic”.

Values taken from patent US10513533B2, “Tunicamycin related compounds with anti-bacterial activity” (priority 2017, dated 2019).
